Measured values: the NIST ThermoML archive (doi:10.1016/j.tca.2009.07.006)

Legend:
[1] = xn = mol fraction of the nth substance listed; settings: 101 kPa, Liquid
[2] = molar heat capacity at constant pressure; xn = mol fraction of the nth substance listed; settings: 101 kPa, Liquid, Small sample (50 mg) DSC

CCOS(=O)(=O)[O-].CCn1cc[n+](C)c1 [1-ethyl-3-methylimidazolium ethyl sulfate] + O
Settings	electrical conductivity, x1 = 0.2 [S/m]	electrical conductivity, x1 = 0.4 [S/m]	electrical conductivity, x1 = 0.6 [S/m]	electrical conductivity, x1 = 0.8 [S/m]	molar heat capacity at constant pressure, x1 = 0.2 [J/K/mol]	molar heat capacity at constant pressure, x1 = 0.4 [J/K/mol]	molar heat capacity at constant pressure, x1 = 0.6 [J/K/mol]	molar heat capacity at constant pressure, x1 = 0.8 [J/K/mol]
[1], 293.2 K	2.17	1.23	0.74	0.466	–	–	–	–
[1], 298.2 K	2.53	1.44	0.881	0.569	–	–	–	–
[1], 303.2 K	2.95	1.695	1.05	0.696	–	–	–	–
[1], 308.2 K	3.387	1.95	1.25	0.837	–	–	–	–
[1], 313.2 K	3.85	2.243	1.45	0.991	–	–	–	–
[1], 318.2 K	4.34	2.563	1.67	1.159	–	–	–	–
[1], 323.2 K	4.86	2.9	1.91	1.342	–	–	–	–
[1], 328.2 K	5.4	3.257	2.15	1.54	–	–	–	–
[1], 333.2 K	5.93	3.617	2.41	1.746	–	–	–	–
[1], 338.2 K	6.5	3.997	2.69	1.94	–	–	–	–
[1], 343.2 K	7.07	4.393	2.99	2.173	–	–	–	–
[1], 348.2 K	7.64	4.793	3.28	2.417	–	–	–	–
[1], 353.2 K	8.24	5.207	3.62	2.673	–	–	–	–
[2], 303.2 K	–	–	–	–	146.4	218.8	290	359.1
[2], 308.2 K	–	–	–	–	147.5	220.3	291.4	360.8
[2], 313.2 K	–	–	–	–	148.7	221.6	292.8	362.3
[2], 318.2 K	–	–	–	–	149.5	223.1	294.4	364
[2], 323.2 K	–	–	–	–	150.8	224.7	295.9	365.7
[2], 328.2 K	–	–	–	–	151.9	226.1	297.5	367.5
[2], 333.2 K	–	–	–	–	153.2	227.8	298.9	369.3
[2], 338.2 K	–	–	–	–	154.7	229.4	300.6	371.5
[2], 343.2 K	–	–	–	–	155.9	231	302.2	373.2
[2], 348.2 K	–	–	–	–	157.2	232.8	304	375.5
[2], 353.2 K	–	–	–	–	158.4	234.6	305.8	377.5

CCn1cc[n+](C)c1.O=S(=O)([O-])C(F)(F)F [1-ethyl-3-methylimidazolium trifluoromethanesulfonate] + O
Settings	electrical conductivity, [1] [S/m]	molar heat capacity at constant pressure, [2] [J/K/mol]
293.2 K, x1 = 0.2	3.437	–
293.2 K, x1 = 0.4	2.35	–
293.2 K, x1 = 0.6	1.64	–
293.2 K, x1 = 0.8	1.17	–
298.2 K, x1 = 0.2	3.927	–
298.2 K, x1 = 0.4	2.67	–
298.2 K, x1 = 0.6	1.86	–
298.2 K, x1 = 0.8	1.34	–
303.2 K, x1 = 0.1	–	102.6
303.2 K, x1 = 0.2	4.47	133.3
303.2 K, x1 = 0.4	3.05	197.5
303.2 K, x1 = 0.6	2.12	260.1
303.2 K, x1 = 0.8	1.56	320.1
303.2 K, x1 = 0.9	–	351
308.2 K, x1 = 0.1	–	103
308.2 K, x1 = 0.2	5.037	134.1
308.2 K, x1 = 0.4	3.46	198.7
308.2 K, x1 = 0.6	2.42	261.6
308.2 K, x1 = 0.8	1.79	321.9
308.2 K, x1 = 0.9	–	352.7
313.2 K, x1 = 0.1	–	103.4
313.2 K, x1 = 0.2	5.613	134.7
313.2 K, x1 = 0.4	3.87	199.9
313.2 K, x1 = 0.6	2.73	263.2
313.2 K, x1 = 0.8	2.01	323.7
313.2 K, x1 = 0.9	–	354.8
318.2 K, x1 = 0.1	–	103.8
318.2 K, x1 = 0.2	6.213	135.5
318.2 K, x1 = 0.4	4.31	201.3
318.2 K, x1 = 0.6	3.047	264.5
318.2 K, x1 = 0.8	2.27	325.4
318.2 K, x1 = 0.9	–	356.7
323.2 K, x1 = 0.1	–	104.3
323.2 K, x1 = 0.2	6.837	136.4
323.2 K, x1 = 0.4	4.77	202.4
323.2 K, x1 = 0.6	3.393	266
323.2 K, x1 = 0.8	2.55	327.3
323.2 K, x1 = 0.9	–	358.4
328.2 K, x1 = 0.1	–	105
328.2 K, x1 = 0.2	7.47	137.1
328.2 K, x1 = 0.4	5.24	203.8
328.2 K, x1 = 0.6	3.757	267.6
328.2 K, x1 = 0.8	2.84	329.1
328.2 K, x1 = 0.9	–	360.2
333.2 K, x1 = 0.1	–	105.5
333.2 K, x1 = 0.2	8.113	138
333.2 K, x1 = 0.4	5.72	205.2
333.2 K, x1 = 0.6	4.127	269.1
333.2 K, x1 = 0.8	3.14	331.1
333.2 K, x1 = 0.9	–	362
338.2 K, x1 = 0.1	–	106.1
338.2 K, x1 = 0.2	8.76	138.8
338.2 K, x1 = 0.4	6.22	206.4
338.2 K, x1 = 0.6	4.513	270.9
338.2 K, x1 = 0.8	3.46	332.7
338.2 K, x1 = 0.9	–	364
343.2 K, x1 = 0.1	–	106.4
343.2 K, x1 = 0.2	9.413	139.8
343.2 K, x1 = 0.4	6.71	207.7
343.2 K, x1 = 0.6	4.903	272.3
343.2 K, x1 = 0.8	3.78	334.6
343.2 K, x1 = 0.9	–	365.9
348.2 K, x1 = 0.1	–	107
348.2 K, x1 = 0.2	10.05	140.6
348.2 K, x1 = 0.4	7.22	208.9
348.2 K, x1 = 0.6	5.307	273.8
348.2 K, x1 = 0.8	4.13	336.4
348.2 K, x1 = 0.9	–	368
353.2 K, x1 = 0.1	–	107.5
353.2 K, x1 = 0.2	10.71	141.5
353.2 K, x1 = 0.4	7.75	210.1
353.2 K, x1 = 0.6	5.743	275.5
353.2 K, x1 = 0.8	4.48	338.2
353.2 K, x1 = 0.9	–	369.8
